Literature values as cited in patent US10159714B2, “Compositions, devices and methods of use thereof for the treatment of cancers” (Intarcia Therapeutics, Inc., priority 2011, dated 2018).
Where no end group is shown, it is not given here.

How the values were obtained:
[1] = test system: gonadotropin secretion / testosterone
[2] = test system: prostatic tumors in Noble and Dunning male rats and DMBA-induced mammary tumors in female rats; conditions: hormone-dependent tumors in rats
fasting hyperglycemia = conditions: type 2 diabetic patients

oral activity ([1]; in vivo, po)	Compound	time to decrease of LH, FSH and testosterone after initiation of treatment ([1]; continuous administration)	testosterone level ([1]; males, continuous administration)	tumor growth [2]	effect on fasting hyperglycemia (fasting hyperglycemia)
not active when given orally	CCNC(=O)[C@@H]1CCCN1C(=O)[C@H](CCCNC(=N)N)NC(=O)[C@H](CC(C)C)NC(=O)[C@@H](CC(C)C)NC(=O)[C@H](Cc1ccc(O)cc1)NC(=O)[C@H](CO)NC(=O)[C@H](Cc1c[nH]c2ccccc12)NC(=O)[C@H](Cc1c[nH]cn1)NC(=O)[C@@H]1CCC(=O)N1 [leuprolide acetate]	two to six	reduced to castrate levels	inhibition of the growth	
	GLP-1(7-37) (HAEGTFTSDVSSYLEGQAAKEFIAWLVKGRG; Glucagon-like peptide 1(7-37); UniProt P01275 98-128, looked up) [form of the GLP-1 peptide]				normalize fasting hyperglycemia
	glucagon-like peptide-1 (7-36) amide (HAEGTFTSDVSSYLEGQAAKEFIAWLVKGR-NH2; listed as Homo sapiens) [GLP-1(7-36)amide]				normalize fasting hyperglycemia
